We go through one compound from publication PMC8655505, “Stimulation of the Runx2 P1 promoter by collagen-derived dipeptide prolyl-hydroxyproline bound to Foxg1 and Foxo1 in osteoblasts” (Bioscience Reports, 2021).

Each structure is given as a SMILES string. Square brackets hold non-standard residues; d marks the D form. Peptide text beside a SMILES is read from it. Hyp = O=C(O)[C@@H]1C[C@@H](O)CN1

The test concerns the target T1, Foxo1 (Mus musculus, UniProt Q9R1E0).
T1 construct: full-length
The test can be described thus: competition of free Pro-Hyp with (Pro-Hyp-Gly)5-linked magnetic beads, Western blot. It counts as binding. As to conditions: free Pro-Hyp 0.1 or 10 mM; pH 7.8, 150 mM KCl, 4 °C overnight; cell extract. On the technique in general: In western blotting, separated proteins are transferred to a membrane and probed.

T1 sequence (Q9R1E0 whole entry): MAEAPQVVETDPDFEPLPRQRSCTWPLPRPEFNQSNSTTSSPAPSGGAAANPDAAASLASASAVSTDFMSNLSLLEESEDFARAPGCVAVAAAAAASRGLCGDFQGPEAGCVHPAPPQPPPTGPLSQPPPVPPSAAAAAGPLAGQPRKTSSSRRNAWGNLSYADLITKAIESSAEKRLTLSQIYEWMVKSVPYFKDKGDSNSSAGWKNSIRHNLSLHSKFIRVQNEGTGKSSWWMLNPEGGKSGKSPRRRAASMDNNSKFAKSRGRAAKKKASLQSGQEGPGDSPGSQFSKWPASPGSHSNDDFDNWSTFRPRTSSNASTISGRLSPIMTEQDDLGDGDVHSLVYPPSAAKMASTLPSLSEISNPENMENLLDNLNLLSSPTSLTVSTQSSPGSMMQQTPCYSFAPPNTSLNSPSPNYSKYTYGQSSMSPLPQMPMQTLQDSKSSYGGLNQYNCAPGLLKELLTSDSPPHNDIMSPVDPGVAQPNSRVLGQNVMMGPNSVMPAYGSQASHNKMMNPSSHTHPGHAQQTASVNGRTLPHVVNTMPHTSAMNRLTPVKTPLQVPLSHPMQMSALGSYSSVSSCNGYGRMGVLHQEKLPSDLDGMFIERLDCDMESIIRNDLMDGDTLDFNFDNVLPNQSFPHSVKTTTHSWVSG

`O=C(O)[C@@H]1C[C@@H](O)CN1C(=O)[C@@H]1CCCN1` [Pro-Hyp] (H-Pro-[Hyp]-OH): the “competition of free Pro-Hyp with (Pro-Hyp-Gly)5-linked magnetic beads, Western b” value was “These data suggest that Pro-Hyp binds to Foxo1”.
